{"source": "patent US20230277486A1", "about": "“COMPOSITIONS FOR THE TREATMENT OF NON-ARTICULAR CARTILAGE-[…] CONDITIONS” (priority 2019, published 2023)", "assay_type_in_all_cases": "cell-based", "key": {"[1]": {"tested_on": "Primary human osteoblasts", "assay": "qPCR gene expression in osteoblast cultures exposed to PCA", "method": "(§1) Cells: Primary human osteoblasts were obtained from Cell Applications, San Diego, Calif.\n(§2) Cell culture: Osteoblasts were expanded in culture using the protocol provided by Cell Applications. Human Osteoblast Basal Media was supplemented with Human Osteoblast Growth Supplement (Cell Applications) containing 0.15 g/L calcium. Human Osteoblast Differentiation Media was purchased from Cell Applications, containing 0.20 g/L calcium.\n(§3) Treatment: Osteoblasts were cultured in Human Osteoblast Basal Media and exposed to Protocatechuic acid (PCA) for up to 12 days at concentrations ranging from 1 μmolar to 100 μM. Osteoblasts were cultured without any PCA as negative control. Osteoblasts were cultured without any PCA in osteogenic media (Human Osteoblast Differentiation Media) as positive control (osteogenic media induces osteogenesis in osteoblasts). Each experiment was conducted in triplicate. Media were changed every 3 days.\nGene expression: Pro-osteogenic and anti-osteogenic gene expression was measured using qPCR on mRNA extracted from osteoblast cultures. Gene expression was computed as fold-change relative to control group (osteoblasts cultured without any PCA)."}, "[2]": {"tested_on": "Primary human osteoblasts", "assay": "Calcium deposition in osteoblast cultures, Alizarin red stain", "details": "PCA 1 μM to 100 μM, 12 days of culture", "method": "as §1, §2, §3\nCalcium deposition: Osteoblast cultures were tested for calcium deposition using Alizarin red stain."}, "[3]": {"tested_on": "Primary human mesenchymal stem cells (MSC)", "assay": "qPCR osteogenic gene expression in MSC cultures exposed to PCA", "details": "three cell lines, PCA 200 μM to 2000 μM, 14 or 21 days", "method": "(§4) Cells: Primary human mesenchymal stem cells (MSC) were obtained from RoosterBio Inc., Frederick, Md.; ATCC, Manassas, Va.; and Cell Applications, San Diego, Calif.\n(§5) Cell culture: MSC were expanded in culture, using the protocol provided by the respective suppliers, before being subjected to the experimental conditions.\n(§6) Treatment: MSC were cultured in supplier-provided culture media and exposed to Protocatechuic acid (PCA) for 14 or 21 days at concentrations ranging from 200 μM to 2000 μM (2 mM). MSC were cultured without any PCA as negative control. To serve as positive control, MSC were cultured without any PCA in osteogenic media (Human Osteoblast Differentiation Media, Cell Applications, Catalog number: 417D-250). Osteogenic media is commonly used to induce osteogenesis. Each experiment was conducted in triplicate. Media was changed twice a week.\nGene expression: Osteogenic gene expression was measured using qPCR on mRNA extracted from MSC cultures. Gene expression was computed as fold-change relative to the control group (MSC cultured without any PCA). MSC cultured in osteogenic media was used as positive control as this protocol is commonly used to induce osteogenesis."}, "[4]": {"tested_on": "Primary human mesenchymal stem cells (MSC)", "assay": "Calcium deposition in MSC cultures, Alizarin red stain at 21 days", "details": "three cell lines, PCA 200 μM to 2000 μM, FIG. 8", "method": "as §4, §5, §6\nCalcium deposition: MSC cultures were tested for calcium deposition using Alizarin red stain at 21 days."}}}
{"smiles": "O=C(O)c1ccc(O)c(O)c1", "note": "[PCA, protocatechuic acid]", "values": [{"measurement": "IL-1β gene expression (anti-osteogenic gene)", "setting": "[1]; PCA 1 μM to 100 μM, FIG. 2", "result": "increasing"}, {"measurement": "IL-6 gene expression (anti-osteogenic gene)", "setting": "[1]; PCA 1 μM to 100 μM, FIG. 2", "result": "increasing"}, {"measurement": "MMP-1 gene expression (anti-osteogenic gene)", "setting": "[1]; PCA 1 μM to 100 μM, FIG. 2", "result": "suppressing"}, {"measurement": "TNF-α gene expression (anti-osteogenic gene)", "setting": "[1]; PCA 1 μM to 100 μM, FIG. 2", "result": "suppressing"}, {"measurement": "BMP-6 expression, dose dependence", "setting": "[1]; PCA 1 μM to 100 μM, FIG. 3", "result": "dose-dependent effect"}, {"measurement": "osteogenic gene expression (IBSP, SPP1, TNAP, RunX2)", "setting": "[1]; PCA 1 μM to 100 μM, up to 12 days, fold-change relative to control without PCA, FIG. 1", "result": "dose-dependent effect on all osteogenic genes tested"}, {"measurement": "expression of osteogenic genes versus positive control (osteogenic media)", "setting": "[1]; PCA 100 μmolar (highest dose)", "result": "even higher than that measured in the positive control"}, {"measurement": "BMP-6 expression relative to negative control", "setting": "[1]; PCA 100 μmolar, FIG. 3", "result": "greater than 2 fold"}, {"measurement": "calcium deposition", "setting": "[2]", "result": "did not increase deposition of calcium by detectable amounts"}, {"measurement": "RUNX2 expression", "setting": "[3]; FIG. 5", "result": "increased RUNX2 at most dose levels"}, {"measurement": "RUNX2 expression versus positive control (osteogenic media)", "setting": "[3]; FIG. 5", "result": "mostly higher than the positive control"}, {"measurement": "expression of alkaline phosphatase (TNAP)", "setting": "[3]; FIG. 6", "result": "increased the expression of alkaline phosphatase relative to negative control but not greater than the osteogenic conditions"}, {"measurement": "expression of bone sialoprotein (IBSP)", "setting": "[3]; FIG. 7", "result": "did not increase"}, {"measurement": "expression of osteopontin (SPP1)", "setting": "[3]; versus positive control (osteogenic media), FIG. 4", "result": "even higher than that measured in the positive control"}, {"measurement": "deposition of calcium", "setting": "[4]", "result": "visibly increased the deposition of calcium in one of the three cell lines"}]}
